In the NIST ThermoML archive (doi:10.1016/j.fluid.2012.03.016):
Numbers after ± are expanded uncertainties.

Details: Pendant drop shape

CCC(=O)[O-].C[N+](C)(C)CCO [cholinium propanoate]
Details	surface tension liquid-gas [mN/m]
294 K	34.6 ± 1.1
302.6 K	33.3 ± 1.1
313.7 K	32.6 ± 1.1
324.1 K	32.3 ± 1.1
333.8 K	31.7 ± 1.1
343.4 K	31.2 ± 1.1
354.5 K	30.9 ± 1.1
373.4 K	29.5 ± 1.1
392.6 K	28.6 ± 1.1

C[N+](C)(C)CCO.O=C([O-])CCC(=O)O [2-hydroxy-N,N,N-trimethylethanaminium 3-carboxypropanoate]
Details	surface tension liquid-gas [mN/m]
308.2 K	40.7 ± 1.1
313.9 K	40.4 ± 1.1
319.2 K	40.1 ± 1.1
324 K	39.5 ± 1.1
328.5 K	39.5 ± 1.1
333.6 K	38.9 ± 1.1
339.4 K	38.4 ± 1.1

C/C=C(\C)C(=O)[O-].C[N+](C)(C)CCO
Details	surface tension liquid-gas [mN/m]
294 K	31.6 ± 1.1
303.9 K	30.7 ± 1.1
314.2 K	30.7 ± 1.1
323.9 K	30.9 ± 1.1
333.5 K	30.2 ± 1.1
338 K	29.8 ± 1.1
340.1 K	29.9 ± 1.1
346.2 K	29.9 ± 1.1
348.2 K	28.5 ± 1.1
357.4 K	28 ± 1.1
362.5 K	28.2 ± 1.1
373 K	27.6 ± 1.1
379.5 K	26.1 ± 1.1
391.8 K	26.4 ± 1.1
